Key:
Format in all cases: functional
[1] = tested on: HCT-15; experiment: Antiproliferative activity against human HCT-15 cells assessed as cell growth at 10 uM incubated for 48 hrs by sulforhodamine B assay relative to control; conditions: read-out: Activity
[2] = tested on: CCRF-CEM; experiment: Antiproliferative activity against human CCRF-CEM cells assessed as cell growth at 10 uM incubated for 48 hrs by sulforhodamine B assay relative to control; conditions: read-out: Activity
[3] = tested on: SK-OV-3; experiment: Antiproliferative activity against human SK-OV-3 cells assessed as cell growth at 10 uM incubated for 48 hrs by sulforhodamine B assay relative to control; conditions: read-out: Activity
[4] = tested on: IGROV-1; experiment: Antiproliferative activity against human IGROV-1 cells assessed as cell growth at 10 uM incubated for 48 hrs by sulforhodamine B assay relative to control; conditions: read-out: Activity
[5] = tested on: SK-MEL-2; experiment: Antiproliferative activity against human SK-MEL-2 cells assessed as cell growth at 10 uM incubated for 48 hrs by sulforhodamine B assay relative to control; conditions: read-out: Activity
[6] = tested on: OVCAR-5; experiment: Antiproliferative activity against human OVCAR-5 cells assessed as cell growth at 10 uM incubated for 48 hrs by sulforhodamine B assay relative to control; conditions: read-out: Activity
[7] = tested on: K562; experiment: Antiproliferative activity against human K562 cells assessed as cell growth at 10 uM incubated for 48 hrs by sulforhodamine B assay relative to control; conditions: read-out: Activity
[8] = tested on: OVCAR-8; experiment: Antiproliferative activity against human OVCAR-8 cells assessed as cell growth at 10 uM incubated for 48 hrs by sulforhodamine B assay relative to control; conditions: read-out: Activity
[9] = tested on: RPMI-8226; experiment: Antiproliferative activity against human RPMI-8226 cells assessed as cell growth at 10 uM incubated for 48 hrs by sulforhodamine B assay relative to control; conditions: read-out: Activity
[10] = tested on: SF-539; experiment: Antiproliferative activity against human SF-539 cells assessed as cell growth at 10 uM incubated for 48 hrs by sulforhodamine B assay relative to control; conditions: read-out: Activity
[11] = tested on: Hs-578T; experiment: Antiproliferative activity against human Hs-578T cells assessed as cell growth at 10 uM incubated for 48 hrs by sulforhodamine B assay relative to control; conditions: read-out: Activity
[12] = tested on: U-251; experiment: Antiproliferative activity against human U-251 cells assessed as cell growth at 10 uM incubated for 48 hrs by sulforhodamine B assay relative to control; conditions: read-out: Activity
[13] = tested on: A498; experiment: Antiproliferative activity against human A498 cells assessed as cell growth at 10 uM incubated for 48 hrs by sulforhodamine B assay relative to control; conditions: read-out: Activity
[14] = tested on: SN12C; experiment: Antiproliferative activity against human SN12C cells assessed as cell growth at 10 uM incubated for 48 hrs by sulforhodamine B assay relative to control; conditions: read-out: Activity
[15] = tested on: OVCAR-4; experiment: Antiproliferative activity against human OVCAR-4 cells assessed as cell growth at 10 uM incubated for 48 hrs by sulforhodamine B assay relative to control; conditions: read-out: Activity
[16] = tested on: TK-10; experiment: Antiproliferative activity against human TK-10 cells assessed as cell growth at 10 uM incubated for 48 hrs by sulforhodamine B assay relative to control; conditions: read-out: Activity
[17] = tested on: SK-MEL-28; experiment: Antiproliferative activity against human SK-MEL-28 cells assessed as cell growth at 10 uM incubated for 48 hrs by sulforhodamine B assay relative to control; conditions: read-out: Activity
[18] = tested on: HOP-62; experiment: Antiproliferative activity against human HOP-62 cells assessed as cell growth at 10 uM incubated for 48 hrs by sulforhodamine B assay relative to control; conditions: read-out: Activity
[19] = tested on: NCI-H23; experiment: Antiproliferative activity against human NCI-H23 cells assessed as cell growth at 10 uM incubated for 48 hrs by sulforhodamine B assay relative to control; conditions: read-out: Activity
[20] = tested on: NCI-H226; experiment: Antiproliferative activity against human NCI-H226 cells assessed as cell growth at 10 uM incubated for 48 hrs by sulforhodamine B assay relative to control; conditions: read-out: Activity
[21] = tested on: BT-549; experiment: Antiproliferative activity against human BT-549 cells assessed as cell growth at 10 uM incubated for 48 hrs by sulforhodamine B assay relative to control; conditions: read-out: Activity
[22] = tested on: SR; experiment: Antiproliferative activity against human SR cells assessed as cell growth at 10 uM incubated for 48 hrs by sulforhodamine B assay relative to control; conditions: read-out: Activity
[23] = tested on: EKVX; experiment: Antiproliferative activity against human EKVX cells assessed as cell growth at 10 uM incubated for 48 hrs by sulforhodamine B assay relative to control; conditions: read-out: Activity
[24] = tested on: NCI-H522; experiment: Antiproliferative activity against human NCI-H522 cells assessed as cell growth at 10 uM incubated for 48 hrs by sulforhodamine B assay relative to control; conditions: read-out: Activity
[25] = tested on: SF-268; experiment: Antiproliferative activity against human SF-268 cells assessed as cell growth at 10 uM incubated for 48 hrs by sulforhodamine B assay relative to control; conditions: read-out: Activity
[26] = tested on: SNB-75; experiment: Antiproliferative activity against human SNB-75 cells assessed as cell growth at 10 uM incubated for 48 hrs by sulforhodamine B assay relative to control; conditions: read-out: Activity
[27] = tested on: SF-295; experiment: Antiproliferative activity against human SF-295 cells assessed as cell growth at 10 uM incubated for 48 hrs by sulforhodamine B assay relative to control; conditions: read-out: Activity
[28] = tested on: MDA-MB-435; experiment: Antiproliferative activity against human MDA-MB-435 cells assessed as cell growth at 10 uM incubated for 48 hrs by sulforhodamine B assay relative to control; conditions: read-out: Activity
[29] = tested on: COLO 205; experiment: Antiproliferative activity against human COLO 205 cells assessed as cell growth at 10 uM incubated for 48 hrs by sulforhodamine B assay relative to control; conditions: read-out: Activity
[30] = tested on: SK-MEL-5; experiment: Antiproliferative activity against human SK-MEL-5 cells assessed as cell growth at 10 uM incubated for 48 hrs by sulforhodamine B assay relative to control; conditions: read-out: Activity
[31] = tested on: MOLT-4; experiment: Antiproliferative activity against human MOLT-4 cells assessed as cell growth at 10 uM incubated for 48 hrs by sulforhodamine B assay relative to control; conditions: read-out: Activity
[32] = tested on: UACC-62; experiment: Antiproliferative activity against human UACC-62 cells assessed as cell growth at 10 uM incubated for 48 hrs by sulforhodamine B assay relative to control; conditions: read-out: Activity
[33] = tested on: HT-29; experiment: Antiproliferative activity against human HT-29 cells assessed as cell growth at 10 uM incubated for 48 hrs by sulforhodamine B assay relative to control; conditions: read-out: Activity
[34] = tested on: NCI/ADR-RES; experiment: Antiproliferative activity against human NCI/ADR-RES cells assessed as cell growth at 10 uM incubated for 48 hrs by sulforhodamine B assay relative to control; conditions: read-out: Activity
[35] = tested on: NCI-H322M; experiment: Antiproliferative activity against human NCI-H322M cells assessed as cell growth at 10 uM incubated for 48 hrs by sulforhodamine B assay relative to control; conditions: read-out: Activity
[36] = tested on: HCC 2998; experiment: Antiproliferative activity against human HCC 2998 cells assessed as cell growth at 10 uM incubated for 48 hrs by sulforhodamine B assay relative to control; conditions: read-out: Activity
[37] = tested on: SNB-19; experiment: Antiproliferative activity against human SNB-19 cells assessed as cell growth at 10 uM incubated for 48 hrs by sulforhodamine B assay relative to control; conditions: read-out: Activity
[38] = tested on: SK-OV-3; experiment: Antiproliferative activity against human SK-OV-3 cells assessed as cell growth inhibition measured after 72 hrs by crystal violet staining based assay; conditions: SK-OV-3, 72 h
[39] = tested on: NCI-H460; experiment: Antiproliferative activity against human NCI-H460 cells assessed as cell growth inhibition measured after 72 hrs by crystal violet staining based assay; conditions: NCI-H460, 72 h

Row | Compound | growth at 10 µM [1] | growth at 10 µM [2] | growth at 10 µM [3] | growth at 10 µM [4] | growth at 10 µM [5] | growth at 10 µM [6] | growth at 10 µM [7] | growth at 10 µM [8] | growth at 10 µM [10] | growth at 10 µM [11] | growth at 10 µM [12] | growth at 10 µM [13] | growth at 10 µM [14] | growth at 10 µM [15] | growth at 10 µM [16] | growth at 10 µM [17] | growth at 10 µM [18] | growth at 10 µM [19] | growth at 10 µM [20] | growth at 10 µM [21] | also measured
1 | COc1cc(CNC(=O)CCCC/C=C/C(C)C)ccc1OCc1nnc(Nc2cccc(Br)c2)o1 | 90.2% | 81.8% | 82.6% | 92.9% | 105% | 91.1% | 65% | 98% | 88.4% | 93.7% | 102% | 77.8% | 95.7% | 85.1% | 104% | 107% | 75.6% | 66% | 50.4% | 76.4% | growth at 10 µM [9]: 70.3%; growth at 10 µM [22]: 67.7%; growth at 10 µM [23]: 78.1%; growth at 10 µM [24]: 68.6%; growth at 10 µM [25]: 92.6%; growth at 10 µM [26]: 83.5%; growth at 10 µM [27]: 84.2%; growth at 10 µM [28]: 101%; growth at 10 µM [29]: 110%; growth at 10 µM [30]: 89.8%; growth at 10 µM [31]: 83.5%; growth at 10 µM [32]: 67.5%; growth at 10 µM [33]: 97.7%; growth at 10 µM [34]: 87%; growth at 10 µM [35]: 98%; growth at 10 µM [36]: 101%; growth at 10 µM [37]: 99.5%
2 | COc1cc(CNC(=O)CCCC/C=C/C(C)C)ccc1OCc1nnc(Nc2ccc([N+](=O)[O-])cc2)o1 | 81.2% | 78.8% | 11.8% | 53.5% | 71.9% | 101% | 59.6% | 25% | 70.2% | 63.2% | 48.6% | 56.8% | 49% | 11.2% | 84.1% | 78.9% | 0% | 62.1% | 62.1% | 108% | growth at 10 µM [9]: 52.3%; IC50 [38]: 6.4 µM; growth at 10 µM [22]: 64.2%; growth at 10 µM [23]: 74.7%; growth at 10 µM [24]: 73%; growth at 10 µM [25]: 79.7%; growth at 10 µM [26]: 48.7%; growth at 10 µM [27]: 64.9%; growth at 10 µM [28]: 66.4%; growth at 10 µM [29]: 70.9%; growth at 10 µM [30]: 46.3%; growth at 10 µM [31]: 84.2%; growth at 10 µM [32]: 39.6%; IC50 [39]: 5.41 µM; growth at 10 µM [33]: 71.7%; growth at 10 µM [34]: 79.6%; growth at 10 µM [35]: 54.9%; growth at 10 µM [36]: 83.6%; growth at 10 µM [37]: 54%
3 | COc1cc(CNC(=O)CCCC/C=C/C(C)C)ccc1OCc1nnc(SCCc2c[nH]c3ccccc23)o1 | 68.6% | 34.7% | 85.7% | 73.7% | 86.7% | 102% | 40.7% | 71.3% | 80.8% | 81% | 80.5% | 73.3% | 83.1% | 71.7% | 91.7% | 104% | 92.8% | 66.6% | 67.2% | 75% | IC50 [38]: 31.4 µM; growth at 10 µM [22]: 49.3%; growth at 10 µM [23]: 57.4%; growth at 10 µM [24]: 59.4%; growth at 10 µM [25]: 78.9%; growth at 10 µM [26]: 83.1%; growth at 10 µM [27]: 68.8%; growth at 10 µM [28]: 90.2%; growth at 10 µM [29]: 71.2%; growth at 10 µM [30]: 105%; growth at 10 µM [31]: 29.2%; growth at 10 µM [32]: 67.5%; IC50 [39]: 9.89 µM; growth at 10 µM [33]: 69.7%; growth at 10 µM [34]: 56.5%; growth at 10 µM [35]: 88.7%; growth at 10 µM [36]: 98%; growth at 10 µM [37]: 77%
4 | COc1cc(CNC(=O)CCCC/C=C/C(C)C)ccc1OCc1nnc(Nc2ccccc2F)o1 | 90.1% | 83% | 48.6% | 58.4% | 111% | 77.7% | 60.4% | 45.2% | 48.2% | 83.7% | 84% | 92.5% | 70.5% | 0.69% | 97.7% | 85.2% | 56.4% | 63.8% | 64.5% | 77% | growth at 10 µM [9]: 64.9%; IC50 [38]: 12.5 µM; growth at 10 µM [22]: 67.3%; growth at 10 µM [23]: 77.1%; growth at 10 µM [24]: 60.3%; growth at 10 µM [25]: 45.5%; growth at 10 µM [26]: 57.8%; growth at 10 µM [27]: 48%; growth at 10 µM [28]: 100%; growth at 10 µM [29]: 104%; growth at 10 µM [30]: 86.6%; growth at 10 µM [31]: 82%; growth at 10 µM [32]: 65.5%; IC50 [39]: 14.4 µM; growth at 10 µM [33]: 90%; growth at 10 µM [34]: 43.4%; growth at 10 µM [35]: 86.1%; growth at 10 µM [36]: 90.8%; growth at 10 µM [37]: 58.5%

— ChEMBL document CHEMBL5055675, “Apoptosis Inducing 1,3,4-Oxadiazole Conjugates of Capsaicin: Their In Vitro Antiproliferative and In Silico Studies” (ACS Med Chem Lett, 2021)
